This note sets out measurements from US20200216432A1, “SULFONAMIDE DERIVATIVES AS STAT3 INHIBITORS FOR THE TREATMENT OF PROLIFERATIVE DISEASES” (King's College London, priority 2017, published 2020).

Usually inhibition stands for the percentage by which the read-out fell short of the control. Higher therefore signals a response far below the control. As a reminder, the IC50 is the point on the concentration scale where inhibition reaches its midpoint. High values mean weaker potency in that assay, low ones greater potency in that assay.

The target in series [1] is unphosphorylated STAT3 monomer (uSTAT3) SH2 domain (Homo sapiens, UniProt P40763). As to the kind of experiment: Fluorescence polarisation assay for the inhibition of STAT3 dimerisation. The format is binding. To be noted: 350 nM uSTAT3, 10 nM FAM-pYLPQTV, 100 μM ligand; average of triplicate. The source says:
Fluorescence Polarisation Assay for the Inhibition of STAT3 Dimerisation
The compounds were subjected to an in vitro fluorescent polarisation (FP)-based primary PPI binding screen to assess their ability to inhibit STAT3 dimerisation by interacting with the SH2 domain. In this FP assay, the unphosphorylated STAT3 monomer (uSTAT3) and a surrogate peptide FAM-pYLPQTV were used to form a ‘pseudo-dimer’. The assay is based on the concept that the compounds were expected to displace the surrogate peptide from the uSTAT3 resulting in a fluorescent read out.
Specifically, for the FP assay, a black (CORNING™) 96 well plate was thoroughly washed with distilled water and allowed to dry. A 100 nM FAM-pYLPQTV working solution was prepared from 10 μM FAM-pYLPQTV stock solution (in DMSO) using PBS pH 7.4 Buffer. 10 μl FAM-pYLPQTV was added to 350 nM uSTAT3 protein, the final concentration of protein in each well, in 90 μl PBS buffer pH 7.4. The MP value of the surrogate dimer complex was measured using a fluorescent plate reader (Envision™, Perkin Elmer™, USA), which provided the base MP value. The inhibitor solution was then added to the well and the assay plate was placed on a shaker for 5 minutes. The MP value for each well was then measured again. A shift in fluorescent values was observed due to displacement of the fluorescently-labelled surrogate peptide by the inhibitors, and the average inhibition for each inhibitor could be calculated as described below:
Base MP value (X) for each well=MP value of Protein and Probe (350 nm STAT3+10 nM FAM-pYLPQTV)−MP value of free FAM-pYLPQTV
Inhibitor MP value (Y) for each well=MP value of Protein+Probe+Inhibitor (350 nm uSTAT3+10 nM FAM-pYLPQTV+2 μL Inhibitor)−MP value of free FAM-pYLPQTV with 2 μL DMSO
% inhibition by any ligand/peptide=(X−Y)/X*100
For comparison purpose, the % inhibition produced by 100 μM pYLKTKF was considered to be 100%, and the inhibition produced by different ligands was reported as relative to 100 μM pYLKTKF.
% Inhibition produced by 100 μM pYLKTKF=A
% Inhibition produced by 100 μM Ligand=B
Relative inhibition (%)=B/A*100
The experiment was carried out in triplicate, and average values were taken as the measure of PPI inhibition.
In general terms: In fluorescence polarisation assays a small probe gives low polarisation when free and higher when bound to something large.

The test system of series [2] is MDA-MB-231 breast (STAT3-dependent) cancer cell line. As to the kind of experiment: MTT cell viability assay, MDA-MB-231. The format is cell-based, human. Conditions: for IC50: Homo sapiens, MDA-MB-231, 48 h, MTT, 48 hours exposure (table title); for Selectivity ratio: STAT3-null A4 versus STAT3-dependent MDA-MB-231. The source says:
(§1) MTT Cell viability assay with both MDA-MB-231 breast (STAT3-dependent) and A4 (STAT3-null) cancer cell lines.
(§2) After observing significant STAT3 dimerisation inhibitory activity in the preliminary FP assay, the target ligand and related fragments were progressed to an MTT cytotoxicity assay to evaluate in a STAT3-dependent tumour cell line (MDA MB 231, breast cancer) and a STAT3 null A4 cell line. It was anticipated that the compounds would show selective toxicity towards the STAT3-dependent MDA MB 231 cell line and would have lost activity in the STAT3 null A4 cell line if the mechanism of action was STAT3-mediated.
(§3) For each cell line, a total of 10,000 cells were seeded for 24 hours before addition of the inhibitors. The cells were grown in normal cell culture conditions at 37° C. under a 5% CO2 humidified atmosphere using an appropriate medium. The cell count was adjusted to 10^5 cells/ml, and 5,000-20,000 cells were added per well depending on the cell line. The cells were then incubated for 24 hours, and 1 μl aliquots of the inhibitors were added to the wells in triplicate. […] Absorbance was quantified by spectrophotometry at A=570 nm (Envision™ Plate Reader, PerkinElmer™, USA). IC50 values were calculated by a dose-response analysis using the Prism GraphPad Prism® software package.
In general terms: Tetrazolium assays rely on reduction of a dye to a coloured formazan, in cell work by metabolically active cells.

In series [3] the test system is A4 (STAT3-null) cancer cell line. As to the kind of experiment: MTT cell viability assay, A4. The format is cell-based. To be noted: exposure (table title).
Text: as §1, §2, §3

SMILES strings stand for the structures. Square brackets hold non-standard residues; d marks the D form. Peptide text beside a SMILES is read from it. pY = N[C@@H](Cc1ccc(OP(=O)(O)O)cc1)C(=O)O

unphosphorylated STAT3 monomer (uSTAT3) SH2 domain, sequence (P40763 whole entry, the tested form may be a part): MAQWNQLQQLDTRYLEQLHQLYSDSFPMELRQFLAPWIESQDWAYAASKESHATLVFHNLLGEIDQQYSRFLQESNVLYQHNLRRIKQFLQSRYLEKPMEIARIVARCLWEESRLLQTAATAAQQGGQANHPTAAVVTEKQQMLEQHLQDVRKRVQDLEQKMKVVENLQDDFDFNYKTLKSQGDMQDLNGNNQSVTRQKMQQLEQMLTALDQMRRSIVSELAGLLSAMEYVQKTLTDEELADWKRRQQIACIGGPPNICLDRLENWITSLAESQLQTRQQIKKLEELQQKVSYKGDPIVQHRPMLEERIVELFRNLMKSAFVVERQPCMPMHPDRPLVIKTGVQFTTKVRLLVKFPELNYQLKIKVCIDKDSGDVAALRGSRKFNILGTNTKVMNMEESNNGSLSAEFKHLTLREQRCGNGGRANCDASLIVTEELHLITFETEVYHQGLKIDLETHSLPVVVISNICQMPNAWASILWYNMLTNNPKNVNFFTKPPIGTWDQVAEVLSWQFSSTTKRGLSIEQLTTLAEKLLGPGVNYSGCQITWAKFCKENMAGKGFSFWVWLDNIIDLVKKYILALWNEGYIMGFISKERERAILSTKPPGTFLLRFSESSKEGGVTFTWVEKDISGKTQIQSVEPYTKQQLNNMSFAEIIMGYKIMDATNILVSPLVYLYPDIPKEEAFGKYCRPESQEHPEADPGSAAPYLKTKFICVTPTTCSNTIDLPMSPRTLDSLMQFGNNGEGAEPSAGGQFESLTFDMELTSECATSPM

In series [1], `COC(=O)c1ccc(N(C)S(=O)(=O)c2cc(C(=O)NCc3ccc(CN4CCCCC4)cc3)sc2-c2ccc(N3CCOCC3)cc2)cc1` [Compound 1, methyl 4-((N-methyl-2-(4-morpholinophenyl)-5-((4-(piperidin-1-ylmethyl)benzyl)carbamoyl)thiophene)-3-sulfonamido)benzoate] yielded an inhibition at 100 µM of 59.4%. Further, in series [2], 2.68 µM corresponded to half-maximal inhibition (IC50) and the Selectivity ratio is given as 28.13. In series [3], this compound returned a half-inhibitory concentration (IC50) of 75.4 µM.

In turn, `COC(=O)c1ccc(N(C)S(=O)(=O)c2cc(C(=O)NCc3ccc(CN4CCCCC4)cc3)sc2-c2ccc(N3CCCCC3)cc2)cc1` [Compound 2, methyl 4-((N-methyl-2-(4-(piperidin-1-yl)phenyl)-5-((4-(piperidin-1-ylmethyl)benzyl)carbamoyl)thiophene)-3-sulfonamido)benzoate] had an inhibition at 100 µM in series [1] of 51.2%. For the same compound, the IC50 in series [2] was determined as 2.12 µM; in series [3], 84.3 µM. In addition, the Selectivity ratio in series [2] was determined as 39.76.

Take `COC(=O)c1ccc(N(C)S(=O)(=O)c2cc(C(=O)NCc3ccc(CN4CCCCC4)cc3)sc2-c2ccnc(N3CCN(C)CC3)c2)cc1` [Compound 5, methyl 4-((N-methyl-2-(2-(4-methylpiperazin-1-yl)pyridin-4-yl)-5-((4-(piperidin-1-ylmethyl)benzyl)carbamoyl)thiophene)-3-sulfonamido)benzoate]: in series [1], the inhibition at 100 µM came to 46.9%. Besides, in series [2], the half-inhibitory concentration (IC50) was 2.43 µM and the Selectivity ratio came out at 23.62. In addition, 57.4 µM corresponded to half-maximal inhibition in series [3] (IC50).

In series [1], `COC(=O)c1ccc(N(C)S(=O)(=O)c2cc(C(=O)NCc3ccc(CN4CCCCC4)cc3)sc2-c2ccc(C(=O)N3CCN(C)CC3)cc2)cc1` [Compound 7, methyl 4-((N-methyl-2-(4-(4-methylpiperazine-1-carbonyl)phenyl)-5-((4-(piperidin-1-ylmethyl)benzyl)carbamoyl)thiophene)-3-sulfonamido)benzoate] displayed an inhibition at 100 µM of 40.6%. In series [2], it took 6.5 µM to reach half-maximal inhibition (IC50) and the Selectivity ratio is reported as 10.01. Further, the IC50 in series [3] is 65.1 µM.

As to `COC(=O)c1ccc(N(C)S(=O)(=O)c2cc(C(=O)NCc3ccc(CN4CCCCC4)cc3)sc2-c2ccc(C#N)cc2)cc1` [Compound 8, methyl 4-((2-(4-cyanophenyl)-N-methyl-5-((4-(piperidin-1-ylmethyl)benzyl)carbamoyl)thiophene)-3-sulfonamido)benzoate], testing at 100 µM in series [1] gave an inhibition of 36.4%. Further, the IC50 in series [2] turned out to be 12.4 µM; in series [3], 34.3 µM. The Selectivity ratio in series [2] was 2.76.

Take `COC(=O)c1ccc(N(C)S(=O)(=O)c2cc(C(=O)Nc3ccc(OCCN4CCOCC4)cc3)sc2-c2ccc(N3CCOCC3)cc2)cc1` [Compound 9, methyl 4-((N-methyl-5-((4-(2-morpholinoethoxy)phenyl)carbamoyl)-2-(4-morpholinophenyl)thiophene)-3-sulfonamido)benzoate]: in series [1], the inhibition at 100 µM stood at 54.1%. Moreover, in series [2], the half-inhibitory concentration (IC50) amounted to 2.88 µM and the Selectivity ratio turned out to be 31.21. In addition, in series [3], half-maximal inhibition (IC50) required 89.9 µM.

The compound `COC(=O)c1ccc(N(C)S(=O)(=O)c2cc(C(=O)Nc3ccc(OCCN4CCOCC4)cc3)sc2-c2ccc(N3CCN(C)CC3)nc2)cc1` [Compound 11, methyl 4-((N-methyl-2-(6-(4-methylpiperazin-1-yl)pyridin-3-yl)-5-((4-(2-morpholinoethoxy)phenyl)carbamoyl)thiophene)-3-sulfonamido)benzoate] had an inhibition at 100 µM in series [1] of 58.3%. Moreover, in series [2], half-maximal inhibition (IC50) was put at 7.51 µM and the Selectivity ratio is reported as 8.84. In series [3], this compound yielded an IC50 of 66.4 µM.

On to `COC(=O)c1ccc(N(C)S(=O)(=O)c2cc(C(=O)Nc3ccc(OCCN4CCOCC4)cc3)sc2-c2ccc(C(=O)N3CCOCC3)cc2)cc1` [Compound 12, methyl 4-((N-methyl-2-(4-(morpholine-4-carbonyl)phenyl)-5-((4-(2-morpholinoethoxy)phenyl)carbamoyl)thiophene)-3-sulfonamido)benzoate], for which the inhibition at 100 µM in series [1] is 59.4%. Further, in series [2], inhibition was half-maximal at 3.91 µM (IC50) and the Selectivity ratio was 19.28. For the same compound, the IC50 in series [3] was found to be 75.4 µM.

`COC(=O)c1ccc(N(C)S(=O)(=O)c2cc(C(=O)Nc3ccc(OCCN4CCOCC4)cc3)sc2-c2ccnc(N3CCN(C)CC3)c2)cc1` [Compound 13, methyl 4-((N-methyl-2-(2-(4-methylpiperazin-1-yl)pyridin-4-yl)-5-((4-(2-morpholinoethoxy)phenyl)carbamoyl)thiophene)-3-sulfonamido)benzoate] displayed an inhibition at 100 µM in series [1] of 56.2%. Besides, in series [2], the IC50 worked out at 1.86 µM and the Selectivity ratio worked out at 40.01. Besides, in series [3], the midpoint of inhibition, the IC50, lay at 74.7 µM.

In turn, `COC(=O)c1ccc(N(C)S(=O)(=O)c2cc(C(=O)Nc3ccc(OCCN4CCOCC4)cc3)sc2-c2ccnc(N3CCNCC3)c2)cc1` [Compound 14, methyl 4-((N-methyl-5-((4-(2-morpholinoethoxy)phenyl)carbamoyl)-2-(2-(piperazin-1-yl)pyridin-4-yl)thiophene)-3-sulfonamido)benzoate] yielded an inhibition at 100 µM in series [1] of 33.3%. In addition, in series [2], half-maximal inhibition (IC50) was put at 14.5 µM and the Selectivity ratio is listed as 5.40. For the same compound, the IC50 in series [3] came to 78.4 µM.

`COC(=O)c1ccc(N(C)S(=O)(=O)c2cc(C(=O)Nc3ccc(OCCN4CCOCC4)cc3)sc2-c2ccc(C(=O)N3CCN(C)CC3)cc2)cc1` [Compound 15, methyl 4-((N-methyl-2-(4-(4-methylpiperazine-1-carbonyl)phenyl)-5-((4-(2-morpholinoethoxy)phenyl)carbamoyl)thiophene)-3-sulfonamido)benzoate] displayed an inhibition at 100 µM in series [1] of 40.6%. In series [2], inhibition was half-maximal at 10.1 µM (IC50) and the Selectivity ratio was 8.45. Further, the half-maximal inhibitory concentration (IC50) in series [3] amounted to 84.5 µM.

Compound `COC(=O)c1ccc(N(C)S(=O)(=O)c2cc(C(=O)Nc3ccc(OCCN4CCOCC4)cc3)sc2-c2ccc(C#N)cc2)cc1` [Compound 16, methyl 4-((2-(4-cyanophenyl)-N-methyl-5-((4-(2-morpholinoethoxy)phenyl)carbamoyl)thiophene)-3-sulfonamido)benzoate] showed an inhibition at 100 µM in series [1] of 47.9%. In addition, in series [2], it took 1.1 µM to reach half-maximal inhibition (IC50) and the Selectivity ratio was 32.36. Besides, the 50% inhibitory concentration (IC50) in series [3] turned out to be 35.6 µM.

Compound `COC(=O)c1ccc(N(C)S(=O)(=O)c2cc(C(=O)NCc3ccc(N4CCN(C)CC4)cc3)sc2-c2ccc(N3CCCCC3)cc2)cc1` [Compound 17, methyl 4-((N-methyl-5-((4-(4-methylpiperazin-1-yl)benzyl)carbamoyl)-2-(4-(piperidin-1-yl)phenyl)thiophene)-3-sulfonamido)benzoate] registered an inhibition at 100 µM in series [1] of 43.7%. The 50% inhibitory concentration (IC50) in series [2] was 4.7 µM; in series [3] it was 64.3 µM. Also, in series [2], the Selectivity ratio came to 13.68.

For `COC(=O)c1ccc(N(C)S(=O)(=O)c2cc(C(=O)Nc3ccc4c(ccn4Cc4ccccc4)c3)sc2Br)cc1` [Compound 40, methyl 4-((5-((1-benzyl-1H-indo1-5-yl)carbamoyl)-2-bromo-N-methylthiophene)-3-sulfonamido)benzoate], the inhibition at 100 µM in series [1] stood at 47.1%.

With `CC(C)C[C@H](NC(=O)[C@@H](N)Cc1ccc(OP(=O)(O)O)cc1)C(=O)N[C@@H](CCCCN)C(=O)N[C@H](C(=O)N[C@@H](CCCCN)C(=O)N[C@@H](Cc1ccccc1)C(=O)O)[C@@H](C)O` [pYLKTKF, reference compound] (H-[pY]LKTKF-OH), in series [1], the inhibition at 100 µM stood at 41.6%. The “cytotoxicity in the MTT assay” value in series [2] (highest concentration (100 μM) evaluated) is “did not show any cytotoxicity”.
